According to ChEMBL document CHEMBL1151757, “Synthesis, radiosynthesis, and biological evaluation of fluorine-18-labeled 2beta-carbo(fluoroalkoxy)-3beta-(3'-((Z)-2-haloethenyl)phenyl)nortropanes: candidate radioligands for in vivo imaging of the serotonin transporter with positron emission tomography” (J Med Chem, 2008):

System: not listed separately
Test: Ratio of drug uptake in pons to cerebellum in anesthetized cynomolgus monkey after 85 mins postinjection
Type: ADME, organism-based, Macaca fascicularis
Settings: in vivo

| Compound | Ratio |
| --- | --- |
| O=C(OCCC[18F])C1C2CCC(CC1c1cccc(/C=C\Br)c1)N2 (stereo unspecified) | 1.2 |

System: Midbrain
Test: Drug uptake in anesthetized cynomolgus monkey brain midbrain after 1.5 mins postinjection
Type: ADME, organism-based, Macaca fascicularis
Design: unit not given here
Settings: in vivo, 0.025 h

| Compound | Drug uptake |
| --- | --- |
| O=C(OCCC[18F])C1C2CCC(CC1c1cccc(/C=C\Br)c1)N2 (stereo unspecified) | 0.48 |

System: not listed separately
Test: Drug uptake in anesthetized cynomolgus monkey brain cerebellum after 225 mins postinjection
Type: ADME, organism-based, Macaca fascicularis
Settings: in vivo, 3.75 h

| Compound | Drug uptake |
| --- | --- |
| O=C(OCCC[18F])C1C2CCC(CC1c1cccc(/C=C\Br)c1)N2 (stereo unspecified) | 2.03 |

System: not listed separately
Test: Ratio of drug uptake in thalamus to cerebellum in anesthetized cynomolgus monkey after 95 mins postinjection
Type: ADME, organism-based, Macaca fascicularis
Settings: in vivo

| Compound | Ratio |
| --- | --- |
| O=C(OCCC[18F])C1C2CCC(CC1c1cccc(/C=C\Br)c1)N2 (stereo unspecified) | 1.4 |

System: Thalamus
Test: Drug uptake in anesthetized cynomolgus monkey brain thalamus after 0.5 mins postinjection
Type: ADME, organism-based, Macaca fascicularis
Settings: in vivo

| Compound | Drug uptake |
| --- | --- |
| O=C(OCCC[18F])C1C2CCC(CC1c1cccc(/C=C\Br)c1)N2 (stereo unspecified) | 0.01 |

System: Putamen
Test: Drug uptake in anesthetized cynomolgus monkey brain putamen after 35 mins postinjection
Type: ADME, organism-based, Macaca fascicularis
Design: unit not given here
Settings: in vivo

| Compound | Drug uptake |
| --- | --- |
| O=C(OCCC[18F])C1C2CCC(CC1c1cccc(/C=C\Br)c1)N2 (stereo unspecified) | 6.11 |

System: Putamen
Test: Drug uptake in anesthetized cynomolgus monkey brain putamen after 105 mins postinjection
Type: ADME, organism-based, Macaca fascicularis
Design: unit not given here
Settings: in vivo, 1.75 h

| Compound | Drug uptake |
| --- | --- |
| O=C(OCCC[18F])C1C2CCC(CC1c1cccc(/C=C\Br)c1)N2 (stereo unspecified) | 5.21 |

System: Thalamus
Test: Drug uptake in anesthetized cynomolgus monkey brain thalamus after 135 mins postinjection
Type: ADME, organism-based, Macaca fascicularis
Design: unit not given here
Settings: in vivo, 2.25 h

| Compound | Drug uptake |
| --- | --- |
| O=C(OCCC[18F])C1C2CCC(CC1c1cccc(/C=C\Br)c1)N2 (stereo unspecified) | 4.58 |

System: Caudate
Test: Drug uptake in anesthetized cynomolgus monkey brain caudate after 0.5 mins postinjection
Type: ADME, organism-based, Macaca fascicularis, Caudate nucleus
Settings: in vivo

| Compound | Drug uptake |
| --- | --- |
| O=C(OCCC[18F])C1C2CCC(CC1c1cccc(/C=C\Br)c1)N2 (stereo unspecified) | 0.01 |

System: not listed separately
Test: Drug uptake in anesthetized cynomolgus monkey brain cerebellum after 22.5 mins postinjection
Type: ADME, organism-based, Macaca fascicularis
Settings: in vivo, 0.375 h

| Compound | Drug uptake |
| --- | --- |
| O=C(OCCC[18F])C1C2CCC(CC1c1cccc(/C=C\Br)c1)N2 (stereo unspecified) | 5.9 |

System: Caudate
Test: Drug uptake in anesthetized cynomolgus monkey brain caudate after 165 mins postinjection
Type: ADME, organism-based, Macaca fascicularis, Caudate nucleus
Settings: in vivo, 2.75 h

| Compound | Drug uptake |
| --- | --- |
| O=C(OCCC[18F])C1C2CCC(CC1c1cccc(/C=C\Br)c1)N2 (stereo unspecified) | 4.01 |

System: not listed separately
Test: Ratio of drug uptake in caudate to cerebellum in anesthetized cynomolgus monkey after 65 mins postinjection
Type: ADME, organism-based, Macaca fascicularis
Settings: in vivo

| Compound | Ratio |
| --- | --- |
| O=C(OCCC[18F])C1C2CCC(CC1c1cccc(/C=C\Br)c1)N2 (stereo unspecified) | 1.2 |

System: not listed separately
Test: Drug uptake in anesthetized cynomolgus monkey brain cerebellum after 2.5 mins postinjection
Type: ADME, organism-based, Macaca fascicularis
Settings: in vivo

| Compound | Drug uptake |
| --- | --- |
| O=C(OCCC[18F])C1C2CCC(CC1c1cccc(/C=C\Br)c1)N2 (stereo unspecified) | 1.41 |

System: Caudate
Test: Drug uptake in anesthetized cynomolgus monkey brain caudate after 15.5 mins postinjection
Type: ADME, organism-based, Macaca fascicularis, Caudate nucleus
Settings: in vivo

| Compound | Drug uptake |
| --- | --- |
| O=C(OCCC[18F])C1C2CCC(CC1c1cccc(/C=C\Br)c1)N2 (stereo unspecified) | 4.3 |

System: Thalamus
Test: Drug uptake in anesthetized cynomolgus monkey brain thalamus after 235 mins postinjection
Type: ADME, organism-based, Macaca fascicularis
Design: unit not given here
Settings: in vivo

| Compound | Drug uptake |
| --- | --- |
| O=C(OCCC[18F])C1C2CCC(CC1c1cccc(/C=C\Br)c1)N2 (stereo unspecified) | 3.48 |

System: not listed separately
Test: Drug uptake in anesthetized cynomolgus monkey brain frontal lobe after 95 mins postinjection
Type: ADME, organism-based, Macaca fascicularis
Settings: in vivo

| Compound | Drug uptake |
| --- | --- |
| O=C(OCCC[18F])C1C2CCC(CC1c1cccc(/C=C\Br)c1)N2 (stereo unspecified) | 3.31 |

System: not listed separately
Test: Ratio of drug uptake in putamen to cerebellum in anesthetized cynomolgus monkey after 65 mins postinjection
Type: ADME, organism-based, Macaca fascicularis
Settings: in vivo

| Compound | Ratio |
| --- | --- |
| O=C(OCCC[18F])C1C2CCC(CC1c1cccc(/C=C\Br)c1)N2 (stereo unspecified) | 1.3 |

System: Midbrain
Test: Drug uptake in anesthetized cynomolgus monkey brain midbrain after 155 mins postinjection
Type: ADME, organism-based, Macaca fascicularis
Settings: in vivo

| Compound | Drug uptake |
| --- | --- |
| O=C(OCCC[18F])C1C2CCC(CC1c1cccc(/C=C\Br)c1)N2 (stereo unspecified) | 5.23 |

System: not listed separately
Test: Drug uptake in anesthetized cynomolgus monkey brain occipital lobe after 3.5 mins postinjection
Type: ADME, organism-based, Macaca fascicularis
Settings: in vivo

| Compound | Drug uptake |
| --- | --- |
| O=C(OCCC[18F])C1C2CCC(CC1c1cccc(/C=C\Br)c1)N2 (stereo unspecified) | 1.51 |

System: not listed separately
Test: Ratio of drug uptake in occipital lobe to cerebellum in anesthetized cynomolgus monkey after 135 mins postinjection
Type: ADME, organism-based, Macaca fascicularis
Settings: in vivo, 2.25 h

| Compound | Ratio |
| --- | --- |
| O=C(OCCC[18F])C1C2CCC(CC1c1cccc(/C=C\Br)c1)N2 (stereo unspecified) | 1.2 |

System: not listed separately
Test: Ratio of drug uptake in frontal lobe to cerebellum in anesthetized cynomolgus monkey after 125 mins postinjection
Type: ADME, organism-based, Macaca fascicularis
Settings: in vivo

| Compound | Ratio |
| --- | --- |
| O=C(OCCC[18F])C1C2CCC(CC1c1cccc(/C=C\Br)c1)N2 (stereo unspecified) | 0.9 |

System: not listed separately
Test: Drug uptake in anesthetized cynomolgus monkey brain cerebellum after 15.5 mins postinjection
Type: ADME, organism-based, Macaca fascicularis
Settings: in vivo

| Compound | Drug uptake |
| --- | --- |
| O=C(OCCC[18F])C1C2CCC(CC1c1cccc(/C=C\Br)c1)N2 (stereo unspecified) | 5.62 |

System: not listed separately
Test: Drug uptake in anesthetized cynomolgus monkey brain frontal lobe after 27.5 mins postinjection
Type: ADME, organism-based, Macaca fascicularis
Settings: in vivo

| Compound | Drug uptake |
| --- | --- |
| O=C(OCCC[18F])C1C2CCC(CC1c1cccc(/C=C\Br)c1)N2 (stereo unspecified) | 3.8 |

System: Pons
Test: Drug uptake in anesthetized cynomolgus monkey brain pons after 27.5 mins postinjection
Type: ADME, organism-based, Macaca fascicularis
Settings: in vivo

| Compound | Drug uptake |
| --- | --- |
| O=C(OCCC[18F])C1C2CCC(CC1c1cccc(/C=C\Br)c1)N2 (stereo unspecified) | 5.03 |

System: not listed separately
Test: Ratio of drug uptake in pons to cerebellum in anesthetized cynomolgus monkey after 145 mins postinjection
Type: ADME, organism-based, Macaca fascicularis
Settings: in vivo

| Compound | Ratio |
| --- | --- |
| O=C(OCCC[18F])C1C2CCC(CC1c1cccc(/C=C\Br)c1)N2 (stereo unspecified) | 1.6 |

System: Medulla
Test: Drug uptake in anesthetized cynomolgus monkey brain medulla after 35 mins postinjection
Type: ADME, organism-based, Macaca fascicularis
Settings: in vivo

| Compound | Drug uptake |
| --- | --- |
| O=C(OCCC[18F])C1C2CCC(CC1c1cccc(/C=C\Br)c1)N2 (stereo unspecified) | 5.92 |
